Assay results as given in ChEMBL document CHEMBL1201862, “PubChem BioAssay data set” (2004).
Calls of active or inactive are those of the source.

Experiments:
Cytochrome P450 1A2 = biological target: T1, Cytochrome P450 1A2 (Homo sapiens, UniProt P05177);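 note: PubChem cytochrome P450 panel assay, CYP1A2 panel member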
T1 sequence (P05177 whole entry): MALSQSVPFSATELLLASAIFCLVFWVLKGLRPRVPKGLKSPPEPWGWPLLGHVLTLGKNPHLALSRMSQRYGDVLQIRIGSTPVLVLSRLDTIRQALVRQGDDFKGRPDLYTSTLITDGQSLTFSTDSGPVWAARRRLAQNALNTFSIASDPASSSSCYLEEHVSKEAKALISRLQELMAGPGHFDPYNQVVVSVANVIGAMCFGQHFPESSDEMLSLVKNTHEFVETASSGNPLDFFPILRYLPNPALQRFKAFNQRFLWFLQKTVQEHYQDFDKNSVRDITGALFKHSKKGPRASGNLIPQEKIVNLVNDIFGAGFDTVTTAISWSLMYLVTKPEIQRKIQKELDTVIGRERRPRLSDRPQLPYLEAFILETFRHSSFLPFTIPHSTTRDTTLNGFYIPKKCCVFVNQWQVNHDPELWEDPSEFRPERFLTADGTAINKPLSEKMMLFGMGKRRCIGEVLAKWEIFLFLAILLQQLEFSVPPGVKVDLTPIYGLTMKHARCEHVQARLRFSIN

Cytochrome P450 2D6 = Cytochrome P450 2D6 (Homo sapiens, UniProt P10635);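 note: CYP2D6 member of a cytochrome P450 panel assay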
Cytochrome P450 2D6, sequence (P10635 whole entry): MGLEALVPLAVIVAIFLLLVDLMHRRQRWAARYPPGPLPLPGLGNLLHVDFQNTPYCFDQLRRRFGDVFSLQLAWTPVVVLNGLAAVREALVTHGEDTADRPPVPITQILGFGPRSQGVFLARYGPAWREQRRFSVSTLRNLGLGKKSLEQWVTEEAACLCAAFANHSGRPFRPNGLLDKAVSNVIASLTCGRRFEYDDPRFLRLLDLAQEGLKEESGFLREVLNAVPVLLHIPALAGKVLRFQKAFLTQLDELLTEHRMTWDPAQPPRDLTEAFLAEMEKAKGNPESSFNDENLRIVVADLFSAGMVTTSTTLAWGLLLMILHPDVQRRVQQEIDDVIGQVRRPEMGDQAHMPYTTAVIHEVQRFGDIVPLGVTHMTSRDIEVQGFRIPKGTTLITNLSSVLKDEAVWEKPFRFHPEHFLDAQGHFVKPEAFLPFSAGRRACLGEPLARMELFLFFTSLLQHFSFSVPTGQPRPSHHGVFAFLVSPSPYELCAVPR

Cytochrome P450 3A4 = Cytochrome P450 3A4 (Homo sapiens, UniProt P08684);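 note: CYP3A4 tested as one member of a cytochrome P450 panel screen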
Cytochrome P450 3A4, sequence (P08684 whole entry): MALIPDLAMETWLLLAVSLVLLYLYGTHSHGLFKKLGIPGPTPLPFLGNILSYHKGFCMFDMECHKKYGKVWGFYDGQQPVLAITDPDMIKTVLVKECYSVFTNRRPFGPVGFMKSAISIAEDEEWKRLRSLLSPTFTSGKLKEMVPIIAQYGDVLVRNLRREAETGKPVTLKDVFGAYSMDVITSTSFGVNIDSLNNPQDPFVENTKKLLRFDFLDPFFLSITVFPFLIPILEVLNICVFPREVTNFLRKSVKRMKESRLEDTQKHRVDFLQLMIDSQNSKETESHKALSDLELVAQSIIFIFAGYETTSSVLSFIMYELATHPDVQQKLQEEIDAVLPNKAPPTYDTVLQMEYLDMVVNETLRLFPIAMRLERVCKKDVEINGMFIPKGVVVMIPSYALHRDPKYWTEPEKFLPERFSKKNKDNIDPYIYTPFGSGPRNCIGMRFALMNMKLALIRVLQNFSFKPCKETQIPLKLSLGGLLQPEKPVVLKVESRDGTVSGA

Cytochrome P450 2C9 = Cytochrome P450 2C9 (Homo sapiens, UniProt P11712)
Cytochrome P450 2C9, sequence (P11712 whole entry): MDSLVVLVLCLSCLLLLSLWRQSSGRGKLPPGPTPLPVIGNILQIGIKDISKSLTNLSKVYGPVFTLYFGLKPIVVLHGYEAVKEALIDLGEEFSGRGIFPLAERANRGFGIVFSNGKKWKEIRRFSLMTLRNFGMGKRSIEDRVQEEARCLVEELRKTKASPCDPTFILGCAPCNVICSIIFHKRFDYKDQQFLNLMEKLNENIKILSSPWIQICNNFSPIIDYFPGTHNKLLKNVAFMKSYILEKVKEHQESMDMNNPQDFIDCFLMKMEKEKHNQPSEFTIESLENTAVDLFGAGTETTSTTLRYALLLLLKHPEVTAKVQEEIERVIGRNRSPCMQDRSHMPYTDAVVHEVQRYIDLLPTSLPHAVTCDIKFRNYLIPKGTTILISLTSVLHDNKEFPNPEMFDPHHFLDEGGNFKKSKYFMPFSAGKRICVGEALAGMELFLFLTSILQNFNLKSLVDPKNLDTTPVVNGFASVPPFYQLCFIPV

Cytochrome P450 2C19 = Cytochrome P450 2C19 (Homo sapiens, UniProt P33261); assay: Cytochrome panel assay with activity outcomes. Panel member name: p450-cyp2c19 Compounds with AC50 equal or less than 10 uM are considered active; assay type: functional; details: read-out: AC50
Cytochrome P450 2C19, sequence (P33261 whole entry): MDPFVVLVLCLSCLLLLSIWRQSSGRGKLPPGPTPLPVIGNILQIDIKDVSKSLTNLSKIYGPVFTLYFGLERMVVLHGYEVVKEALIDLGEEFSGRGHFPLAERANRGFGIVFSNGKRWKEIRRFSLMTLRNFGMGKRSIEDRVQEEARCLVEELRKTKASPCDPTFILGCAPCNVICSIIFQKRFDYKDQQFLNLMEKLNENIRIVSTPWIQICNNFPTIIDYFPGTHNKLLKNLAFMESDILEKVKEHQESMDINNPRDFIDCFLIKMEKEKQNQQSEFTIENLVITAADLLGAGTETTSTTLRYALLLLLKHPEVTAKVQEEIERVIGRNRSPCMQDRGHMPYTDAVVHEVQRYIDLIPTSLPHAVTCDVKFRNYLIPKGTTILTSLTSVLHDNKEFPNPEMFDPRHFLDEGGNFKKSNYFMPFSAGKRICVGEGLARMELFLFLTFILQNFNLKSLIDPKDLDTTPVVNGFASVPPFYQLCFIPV

Streptococcus = assay: GAS UMAA2166 growth inhibition – luminescence, BacTiterGlo, counter-screen for streptokinase expression inhibitor project, dose response (AID 1915); assay type: functional, organism-based;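 note: potency for reduction of bacterial viability or growth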
[1] = alpha-synuclein stem-loop luciferase translation blockers – H4 neuroglioma cells, luminescence, confirmation (AID 1988); assay type: functional, cell-based
[2] = luciferase reporter signal suppression in cells – H4 neuroglioma cells, luminescence, dose response (AID 1990); assay type: functional, cell-based
[3] = tested on: Streptococcus sp. 'group A'; assay: Streptococcus pyogenes SK(-)GAS viability under kanamycin – luminescence, BacTiterGlo, confirmation, counter-screen for streptokinase expression inhibitor project, dose response (AID 1900); assay type: functional, organism-based
INS1 = assay: INS-1E survival protection against cytokine death – cell-based, luminescence, retest, dose response (AID 449756); assay type: functional; details: Rattus norvegicus;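 note: cell death triggered by IL-1 beta plus TNF-alpha plus IFN-gamma mixture; protective hits raise ATP signal compared with cytokine alone wells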
[4] = Luminescence Cell-Based Dose Response HTS to Identify Inhibitors of 5'UTR Stem-Loop Driven Prion Protein mRNA Translation in H4 Neuroglioblastoma Cells. [Related pubchem assays: 1827 (Project Summary), 1813 (Primary HTS)]; assay type: functional
[5] = biological target: T2, Heat shock factor protein 1 (Mus musculus, UniProt P38532); assay: decrease of HSF1-responsive luciferase luminescence – cell-based, NIH3T3, dose retest, confirmation (AID 2382); assay type: functional;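 note: NIH3T3 fibroblasts with HSF1-driven luciferase reporter stressed by proteasome inhibitor MG132; luminescence from HSF1-driven luciferase expression after 8 hours of MG132 stress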
T2 sequence (P38532 whole entry): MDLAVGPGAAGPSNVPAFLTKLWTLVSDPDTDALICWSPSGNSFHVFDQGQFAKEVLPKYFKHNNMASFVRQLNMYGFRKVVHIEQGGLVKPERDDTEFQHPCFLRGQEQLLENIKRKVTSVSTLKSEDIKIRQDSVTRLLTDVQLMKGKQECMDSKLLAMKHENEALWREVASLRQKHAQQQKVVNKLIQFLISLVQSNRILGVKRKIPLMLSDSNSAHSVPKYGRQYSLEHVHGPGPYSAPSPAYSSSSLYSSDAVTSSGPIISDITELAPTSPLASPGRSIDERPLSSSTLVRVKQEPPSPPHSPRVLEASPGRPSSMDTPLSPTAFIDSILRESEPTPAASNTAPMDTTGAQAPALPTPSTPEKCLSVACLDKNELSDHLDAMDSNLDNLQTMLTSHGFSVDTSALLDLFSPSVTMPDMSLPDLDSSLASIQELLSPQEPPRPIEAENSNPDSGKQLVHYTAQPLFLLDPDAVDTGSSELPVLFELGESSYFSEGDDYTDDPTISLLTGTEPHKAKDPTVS

Genome polyprotein = Genome polyprotein (dengue virus type 2, UniProt P29990); assay: flavivirus cap methylation enzyme inhibition – biochemical, confirmation dose response, primary screen (AID 588689); assay type: functional
Genome polyprotein, sequence (P29990 2492-3391 limits assumed): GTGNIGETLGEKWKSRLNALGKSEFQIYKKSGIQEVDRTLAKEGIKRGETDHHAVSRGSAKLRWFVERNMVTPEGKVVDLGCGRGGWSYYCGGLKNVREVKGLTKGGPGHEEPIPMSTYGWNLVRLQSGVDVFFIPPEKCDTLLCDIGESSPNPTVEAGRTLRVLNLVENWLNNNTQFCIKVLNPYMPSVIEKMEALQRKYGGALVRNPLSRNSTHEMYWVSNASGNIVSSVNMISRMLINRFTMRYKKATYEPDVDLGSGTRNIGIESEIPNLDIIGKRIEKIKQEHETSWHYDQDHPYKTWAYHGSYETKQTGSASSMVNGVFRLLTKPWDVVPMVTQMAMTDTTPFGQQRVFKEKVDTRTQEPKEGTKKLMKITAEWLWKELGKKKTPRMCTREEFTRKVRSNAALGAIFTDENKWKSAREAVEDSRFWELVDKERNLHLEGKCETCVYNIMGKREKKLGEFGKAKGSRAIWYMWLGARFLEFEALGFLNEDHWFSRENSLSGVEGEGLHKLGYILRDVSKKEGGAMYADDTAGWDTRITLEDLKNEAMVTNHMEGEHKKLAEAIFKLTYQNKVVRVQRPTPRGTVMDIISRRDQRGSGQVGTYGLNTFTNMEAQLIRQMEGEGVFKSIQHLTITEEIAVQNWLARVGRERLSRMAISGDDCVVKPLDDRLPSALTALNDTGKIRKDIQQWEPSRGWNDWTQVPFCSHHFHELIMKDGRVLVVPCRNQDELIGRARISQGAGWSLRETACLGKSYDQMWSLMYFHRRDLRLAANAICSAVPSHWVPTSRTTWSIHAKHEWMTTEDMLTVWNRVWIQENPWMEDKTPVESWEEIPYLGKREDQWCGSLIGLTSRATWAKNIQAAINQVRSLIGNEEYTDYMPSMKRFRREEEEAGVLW

[6] = biological target: T3, Zinc finger protein mex-5 (Caenorhabditis elegans, UniProt Q9XUB2); assay: potency of MEX-5 RNA-binding blockers – biochemical, C. elegans, fluorescence polarization, dose response (AID 1960)
T3 sequence (Q9XUB2 whole entry): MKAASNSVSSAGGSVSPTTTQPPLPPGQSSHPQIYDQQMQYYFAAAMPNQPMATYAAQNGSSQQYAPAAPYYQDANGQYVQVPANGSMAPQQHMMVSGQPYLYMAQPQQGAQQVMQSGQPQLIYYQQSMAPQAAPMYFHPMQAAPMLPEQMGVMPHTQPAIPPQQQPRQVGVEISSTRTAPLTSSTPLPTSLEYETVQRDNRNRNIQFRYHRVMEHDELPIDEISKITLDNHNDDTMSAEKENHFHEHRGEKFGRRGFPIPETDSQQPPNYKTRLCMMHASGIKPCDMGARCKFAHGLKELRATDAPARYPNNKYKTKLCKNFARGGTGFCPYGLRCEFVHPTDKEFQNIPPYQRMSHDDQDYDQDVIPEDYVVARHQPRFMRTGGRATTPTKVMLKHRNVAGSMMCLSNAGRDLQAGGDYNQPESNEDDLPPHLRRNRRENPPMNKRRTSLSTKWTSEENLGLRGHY

[7] = biological target: T4, RNA-binding protein pos-1 (Caenorhabditis elegans, UniProt G5EF15); assay: disruptors of C. elegans POS-1 RNA interaction – biochemical, fluorescence polarization, dose response (AID 1964);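 note: purified POS-1 fused to maltose binding protein made in E. coli; potency of compounds blocking POS-1 binding to fluorescent RNA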
T4 sequence (G5EF15 whole entry): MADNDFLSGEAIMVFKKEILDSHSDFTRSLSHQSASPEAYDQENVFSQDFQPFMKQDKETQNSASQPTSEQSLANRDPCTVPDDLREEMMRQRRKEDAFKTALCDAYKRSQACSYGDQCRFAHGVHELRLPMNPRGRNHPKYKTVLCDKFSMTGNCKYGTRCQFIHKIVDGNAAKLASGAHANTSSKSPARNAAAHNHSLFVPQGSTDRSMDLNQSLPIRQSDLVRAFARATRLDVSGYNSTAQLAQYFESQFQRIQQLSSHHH

[8] = NIH3T3 cell viability loss – ATP luminescence, mouse fibroblasts, counter-screen, dose response (AID 2010); assay type: functional, cell-based;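 note: cells exposed to compound for about 90 hours before reading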
[9] = Trypanosoma cruzi growth suppression in host cells – NIH3T3 host cells, beta-gal luminescence, confirmation (AID 2044); assay type: functional, cell-based;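 note: intracellular parasites grown in NIH/3T3 mouse fibroblasts as host cells; luminescent beta-galactosidase reporter signal from transgenic T. cruzi replicating inside host cells; inhibitors lower the luminescence signal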

Compound	AC50 (Cytochrome P450 1A2)	AC50 (Cytochrome P450 2D6)	EC50 [1]	EC50 [4]	other results
Nc1nc(O)c(/N=N\c2ccccc2)c(C(=O)O)n1	1.26 µM (inconclusive)				
CO[C@H]1COC(=O)[C@H]2CCCN2C(=O)C/C=C\[C@@H](C)[C@H](OC)COC(=O)[C@@H](OCc2ccccc2)/C=C\[C@@H]1C		3.16 µM (inconclusive)			AC50 (Cytochrome P450 3A4): 3.98 µM (inconclusive)
Cc1ccc2c(c1)[C@@H]1CN(C)CC[C@@H]1N2S(=O)(=O)c1ccc(F)cc1	17.8 µM (inconclusive)				AC50 (Cytochrome P450 2C9): 0.00562 µM (inconclusive); AC50 (Cytochrome P450 2C19): 28.2 µM (inconclusive)
CC(C)C[C@H](NC(=O)c1[nH]cnc1C(=O)N[C@@H](CC(C)C)C(=O)OC(C)(C)C)C(=O)OCc1ccccc1			8.51 µM (active)	15.7 µM (active)	EC50 (Streptococcus): 6.41 µM (active); EC50 [2]: 21.1 µM (active); EC50 [3]: 2.62 µM (active); AC50 (INS1): 11.8 µM (active)
O=[N+]([O-])c1ccc(Nc2nc3ccccc3s2)cc1		3.16 µM (inconclusive)			AC50 (Cytochrome P450 3A4): 5.01 µM (inconclusive)
O=C(NCCN1CCN(C(=O)c2cccc(Br)c2)CC1)C(=O)Nc1ccc(Br)cc1			65.2 µM (active)	18.7 µM (active)	EC50 [2]: 13.8 µM (active)
CCOC(=O)N1CCN(C(=O)CN(c2ccc(OC)cc2)S(C)(=O)=O)CC1			> 120 µM (not active)	83.4 µM (active)	EC50 [2]: > 120 µM (not active)
O=C(c1cc(C(F)(F)F)cc(C(F)(F)F)c1)N1CCC[C@@]2(CCN(Cc3nccs3)C2)C1	20 µM (inconclusive)				
COc1ccc(C(=O)N/N=C2/SCC(=O)N2Cc2ccc3c(c2)OCO3)cc1OC	25.1 µM (inconclusive)				
CN(C)c1ncc2nc(CCc3ccccc3)c(=O)n(Cc3cccs3)c2n1		25.1 µM (inconclusive)			
Clc1ccc2c(NCCNc3ccnc4cc(Cl)ccc34)ccnc2c1	5.01 µM (inconclusive)				
CCCCn1c(SCC(=O)Nc2nccs2)nc2ccccc2c1=O	0.2 µM (inconclusive)				AC50 (Cytochrome P450 2C9): 0.398 µM (inconclusive); AC50 (Cytochrome P450 2C19): 0.0708 µM (inconclusive)
COc1cccc(Nc2ncc3nc(-c4ccc(F)cc4)c(=O)n(C)c3n2)c1	3.16 µM (inconclusive)				
CNCCNS(=O)(=O)c1cccc2cnccc12		5.01 µM (inconclusive)			AC50 (Cytochrome P450 3A4): 20 µM (inconclusive)
NNC(=O)c1[nH]c2ccccc2c1-c1ccccc1			> 120 µM (not active)	> 120 µM (not active)	EC50 [2]: > 120 µM (not active)
CS(=O)(=O)Nc1cccc(-c2ccc3ncnc(NCc4cccnc4)c3c2)c1		20 µM (inconclusive)			

Compound	AC50 (Cytochrome P450 1A2)	AC50 (Cytochrome P450 2D6)	EC50 [1]	EC50 [4]	other results
CC[C@H](Oc1ccc(Cl)cc1)C(=O)OC1C[C@H]2CC[C@@H](C1)N2C (stereo not given in full)	31.6 µM (inconclusive)				
CC(C)Oc1ccccc1C1Nc2ccccc2C(=O)N1c1ccc2c(c1)OCCO2 (stereo not given)			9.51 µM (active)	> 120 µM (not active)	
Cc1ccc(-n2nc3ccc(N)cc3n2)c(C)c1			16.6 µM (active)	20.3 µM (active)	EC50 [2]: 15.2 µM (active)
COc1ccc(Nc2nc(N)nc(CSc3nc(C)cc(C)n3)n2)cc1			91.3 µM (active)	> 120 µM (not active)	EC50 [5]: > 195 µM (not active); EC50 [2]: 19.8 µM (active)
c1ccc(Oc2cccc(OCCn3cncn3)c2)cc1			> 120 µM (not active)	> 120 µM (not active)	EC50 [5]: > 195 µM (not active); EC50 [2]: > 120 µM (not active)
COC(=O)C/C=C\[C@@H](C)[C@@H](/C=N\O[C@@H](C)CN1CCCc2nc(C)c(C)cc21)OC		2.51 µM (inconclusive)			AC50 (Cytochrome P450 3A4): 3.16 µM (inconclusive)
O[C@@H](COc1ccc(Cl)cc1Cl)CN1CCCC1	5.01 µM (inconclusive)				
COCC(=O)N1CCC2(CCN(Cc3ccccc3)CC2)CC1		25.1 µM (inconclusive)			
COc1ccc2nc(C)cc(SCC(=O)NNC(=O)COc3ccc(C)cc3)c2c1		2 µM (inconclusive)			AC50 (Cytochrome P450 2C9): 1.78 µM (inconclusive)
COc1cc(C2C(C#N)=C(N)OC3=C2C(=O)CC(C)(C)C3)c([N+](=O)[O-])cc1OC (stereo not given)					IC50 (Genome polyprotein): > 100 µM (active); EC50 [6]: 23 µM (inconclusive); EC50 [7]: 19.5 µM (active)
CN(C)C(=O)c1ccc(-c2ccc3ncnc(NCc4ccccc4)c3c2)cc1		31.6 µM (inconclusive)			
Cc1ccc(S(=O)(=O)NN2C(=O)/C(=C/c3ccc(C(=O)O)cc3)SC2=S)cc1					IC50 (Genome polyprotein): 64.9 µM (active)
Cc1ccc2sc(N(CCCN(C)C)C(=O)CCS(=O)(=O)c3ccccc3)nc2c1C			11.1 µM (active)	13.7 µM (active)	EC50 [8]: 4.17 µM (active); EC50 [2]: 14.3 µM (active); EC50 [9]: 0.226 µM (active)
Cn1c(SCc2nc(O)c3ccc(C(=O)O)cc3n2)nnc1C(F)(F)F			> 120 µM (not active)	38.9 µM (active)	EC50 [2]: > 120 µM (not active)
COCCn1c(=O)c(-c2cccc(C#N)c2)nc2cnc(Nc3ccccc3)nc21	2.51 µM (inconclusive)	2.51 µM (inconclusive)			
COc1cccc(-c2cc(NCc3cccnc3)ncn2)c1		25.1 µM (inconclusive)			
